One data set deals with NCI-H460. Kind of data set: Effect on PD-L1 mRNA level in human NCI-H460 cells at 10 uM incubated for 24 hrs by qRT-PCR analysis. The data set is classed as functional, cell-based.
For data set [1], the target named is COP9 signalosome complex subunit 5 (Homo sapiens) (UniProt Q92905). Kind of data set: Induction of PD-L1 degradation in human NCI-H460 cells incubated for 24 hrs by Western blot analysis. It counts as cell-based. The note with it: dose <= 100.0 µM.
Data set [2] shares this target. Kind of data set: Induction of PD-L1 degradation in human NCI-H460 cells at 10 uM by Western blot analysis. It counts as cell-based. Conditions: time <= 36.0 hrs.
Data set [3] has the same target. Kind of data set: Induction of PD-L1 degradation in […] cells at 10 uM by Western blot analysis. It counts as cell-based. The note with it: Lewis lung carcinoma cell line, time <= 36.0 hrs.
Data set [4] shares this target. Kind of data set: Induction of IFN-gamma-induced PD-L1 degradation in human HCC827 cells at 10 uM incubated for 24 hrs by Western blot analysis. The data set is classed as cell-based.
For data set [5] the target is unchanged. Kind of data set: Induction of PD-L1 degradation in human PC-9 cells assessed as reduction in green signal at 10 uM incubated for 24 hrs by immunofluorescence staining based analysis. It counts as cell-based.
In data set [6] the test system is Lewis lung carcinoma cell line. Kind of data set: Anticancer activity against Lewis lung carcinoma cells xenografted in C57BL/6 mouse model assessed as tumor growth inhibition at 10 mg/kg, ip administered daily for 10 days. The data set is classed as functional, organism-based. Conditions: time 10.0 day.
For data set [7], the system named is Lewis lung carcinoma cell line. Kind of data set: Anticancer activity against Lewis lung carcinoma cells xenografted in C57BL/6 mouse model at 10 mg/kg, ip administered daily for 10 days relative to control. It counts as functional. Conditions: 240 h, time 10 day, read-out: TGI.
In data set [8] the test system is Lewis lung carcinoma cell line. Kind of data set: Anticancer activity against Lewis lung carcinoma cells xenografted in C57BL/6 mouse model assessed as decrease in Ki-67 level at 10 mg/kg, ip administered daily for 10 days by IHC analysis. Conditions: time 10.0 day. The data set is classed as functional, organism-based.
Data set [9] concerns Lewis lung carcinoma cell line. Kind of data set: Antitumor T-cell immune response in Lewis lung carcinoma cells xenografted in C57BL/6 mouse model assessed as decrease in CD3+ CD4+ population in CD45+ T cells in tumor at 10 mg/kg, ip administered daily for 10 days by flow cytometry. It counts as functional, organism-based. The note with it: time 10.0 day.
Data set [10] relates to Lewis lung carcinoma cell line. Kind of data set: Antitumor T-cell immune response in Lewis lung carcinoma cells xenografted in C57BL/6 mouse model assessed as increase in CD3+ CD8+ infiltration in CD45+ T cells in tumor at 10 mg/kg, ip administered daily for 10 days by flow cytometry. The data set is classed as functional, organism-based. The note with it: time 10.0 day.

Data set [11] can be described thus: Toxicity in C57BL/6 mouse model xenografted with […] cells assessed as obvious damage in spleen at 10 mg/kg, ip administered daily for 10 days by H and E staining based analysis. The note with it: in vivo, 240 h, time 10 day. It counts as organism-based.
A further data set concerns Lewis lung carcinoma. Kind of data set: Effect on PD-L1 mRNA level in Lewis lung carcinoma cells at 10 uM incubated for 24 hrs by qRT-PCR analysis. Conditions: Mus musculus. It counts as functional, cell-based.
The target of data set [12] is COP9 signalosome complex subunit 5 (Homo sapiens) (UniProt Q92905). Kind of data set: Induction of PD-L1 degradation in human NCI-H460 cells at 10 uM pretreated with compound followed by CHX incubation upto 8 hrs by Western blot analysis. It counts as cell-based.
Data set [13] has the same target. Kind of data set: Binding affinity to CSN5 in HEK293T cell lysate by Western blot analysis. It counts as subcellular.
Data set [14] has the same target. Kind of data set: Induction of PD-L1 degradation in human NCI-H460 cells overexpressing CSN5 by Western blot analysis. The data set is classed as cell-based.

Each structure is given as a SMILES string. Activity calls are given as the source filed them. No cut-off for these calls is given here.

Sequence of COP9 signalosome complex subunit 5 (Homo sapiens) (Q92905 2-334 limits assumed, one chain of several): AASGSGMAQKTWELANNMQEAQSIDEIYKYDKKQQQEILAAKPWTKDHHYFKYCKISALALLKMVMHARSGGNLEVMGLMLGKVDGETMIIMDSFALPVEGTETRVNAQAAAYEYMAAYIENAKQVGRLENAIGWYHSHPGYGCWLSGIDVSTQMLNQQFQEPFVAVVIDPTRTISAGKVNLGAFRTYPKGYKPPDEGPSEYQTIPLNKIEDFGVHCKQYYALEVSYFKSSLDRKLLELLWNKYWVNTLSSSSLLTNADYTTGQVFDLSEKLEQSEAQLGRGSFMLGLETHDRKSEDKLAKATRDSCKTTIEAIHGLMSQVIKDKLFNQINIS

Turning to `COc1cc2c(cc1OC)-c1cc3ccc(OC)c(OCCN)c3c[n+]1CC2.[Cl-]`, the result (in the data set on NCI-H460; in the data set on Lewis lung carcinoma; in [12]; in data set [14]) was inactive. In addition, the Activity result in [1] was “Dose-dependent-effect”; in data set [2], “Time-dependent-effect”; in [3] it was “Time-dependent-effect”; in data set [11], “Non-toxic”. Besides, the outcome in data set [4], in data set [5], in data set [6], in [8], in data set [9] and in [10] was Active. In addition, the outcome in data set [13] was Active. Also, the inhibition in vivo at 10 mg/kg in data set [7] is 71%.

(Values after ChEMBL document CHEMBL6092191, “Advancing Cancer Immunotherapy through Engineering New PD-L1 Degraders: A Comprehensive Study from Small Molecules to PD-L1-Specific Peptide-Drug Conjugates” (J Med Chem, 2024).)
